Activity calls are given as the source filed them.
Columns and labels:
Mus musculus [1] = assay: Analgesic activity in complete freund's adjuvant-induced albino Swiss mouse model of hyperalgesia assessed as increase in paw withdrawal threshold at 50 mg/kg, po administered daily and measured every other for 10 days and on day 21 and 28; format: functional, organism-based
Mus musculus [2] = assay: Antiinflammatory activity in complete freund's adjuvant-induced albino Swiss mouse model of arthritis assessed as suppression of CFA-induced increase in total NFkappaB level at 50 mg/kg, po pretreated for 1 hr followed by CFA stimulation and measured after 3 days by Western blot analysis; format: functional, organism-based
Mus musculus [3] = assay: In vivo inhibition of NFkappaB phosphorylation at ser536 residue in complete freund's adjuvant-induced albino Swiss mouse model of arthritis at 50 mg/kg, po pretreated for 1 hr followed by CFA stimulation and measured after 3 days by Western blot analysis; format: functional, organism-based
Mus musculus [4] = assay: Analgesic activity in albino Swiss mouse assessed as increase in reaction time at 50 mg/kg, po measured after 60 to 240 mins by hot plate test; format: functional, organism-based
Mus musculus [5] = assay: Effect on ERK1/2 signaling in complete freund's adjuvant-induced albino Swiss mouse model of arthritis at 50 mg/kg, po pretreated for 1 hr followed by CFA stimulation and measured after 3 days by Western blot analysis; format: functional, organism-based
Mus musculus [6] = assay: Antiinflammatory activity in complete freund's adjuvant-induced albino Swiss mouse model of arthritis assessed as reduction in leukocyte content in synovial fluid at 50 mg/kg, po pretreated for 1 hr followed by CFA stimulation and measured after 3 days; format: functional, organism-based
Mus musculus [7] = assay: Antiinflammatory activity in complete freund's adjuvant-induced albino Swiss mouse model of arthritis assessed as reduction in paw edema AUC at 25 mg/kg, po pretreated for 1 hr followed by CFA stimulation and measured up to 6 hrs by plethysmometric method relative to control; format: functional; parameters: scale not given: the % may be the effect or the level left
Mus musculus [8] = assay: (§1) Antiinflammatory activity in complete freund's adjuvant-induced albino Swiss mouse model of arthritis assessed as reduction in COX2 production in spinal cord at 50 mg/kg, po pretreated for 1 hr followed by CFA stimulation and measured after 3 days by Western blot analysis; format: functional, organism-based
Mus musculus [9] = assay: Antiinflammatory activity in complete freund's adjuvant-induced albino Swiss mouse model of arthritis assessed as reduction in edema AUC at 50 mg/kg, po administered once daily for 10 days measured every other day during compound dosing relative to control; format: functional; parameters: scale not given: the % may be the effect or the level left
Mus musculus [10] = assay: Antiinflammatory activity in complete freund's adjuvant-induced albino Swiss mouse model of arthritis assessed as reduction in MPO activity in synovial fluid at 50 mg/kg, po pretreated for 1 hr followed by CFA stimulation and measured after 3 days; format: functional, organism-based
Mus musculus [11] = assay: Antiinflammatory activity in complete freund's adjuvant-induced albino Swiss mouse model of arthritis assessed as reduction in paw volume at 25 to 50 mg/kg, po pretreated for 1 hr followed by CFA stimulation and measured after 2 hrs by plethysmometric method; format: functional, organism-based
Mus musculus [12] = assay: Antiinflammatory activity in complete freund's adjuvant-induced albino Swiss mouse model of arthritis assessed as reduction in TNFalpha production in synovial fluid at 50 mg/kg, po pretreated for 1 hr followed by CFA stimulation and measured after 3 days; format: functional, organism-based
Mus musculus [13] = assay: Antiinflammatory activity in complete freund's adjuvant-induced albino Swiss mouse model of arthritis assessed as reduction in IL6 production in synovial fluid at 50 mg/kg, po pretreated for 1 hr followed by CFA stimulation and measured after 3 days; format: functional, organism-based
Mus musculus [14] = assay: as §1, with “In vivo inhibition of MAPK pathway” for “Antiinflammatory activity”, “phosphorylated p38 MAPK to total p38 MAPK ratio” for “COX2 production”; format: functional, organism-based
Mus musculus [15] = assay: Antiinflammatory activity in complete freund's adjuvant-induced albino Swiss mouse model of arthritis assessed as reduction in paw edema AUC at 50 mg/kg, po pretreated for 1 hr followed by CFA stimulation and measured up to 6 hrs by plethysmometric method relative to control; format: functional; parameters: scale not given: the % may be the effect or the level left
[16] = Neurotoxicity in complete freund's adjuvant-induced albino Swiss mouse model of arthritis assessed as motor coordination impairment at 50 mg/kg, po pretreated for 1 hr followed by CFA stimulation and measured up to 240 mins by rotarod test; format: toxicity, organism-based; details: in vivo, 4 h
Mus musculus [17] = assay: Antiinflammatory activity in complete freund's adjuvant-induced albino Swiss mouse model of arthritis assessed as reduction in paw edema at 50 mg/kg, po pretreated for 1 hr followed by CFA stimulation and measured up to 6 hrs by plethysmometric method relative to control; format: functional; parameters: scale not given: the % may be the effect or the level left
Mus musculus [18] = assay: Antiinflammatory activity in complete freund's adjuvant-induced albino Swiss mouse model of arthritis assessed as reduction in IL6 production in spinal cord at 50 mg/kg, po pretreated for 1 hr followed by CFA stimulation and measured after 3 days; format: functional, organism-based
Mus musculus [19] = assay: Analgesic activity in formalin-induced albino Swiss mouse model of nociception assessed as reduction in time spent in paw licking during neurogenic phase at 50 mg/kg, po pretreated for 1 hr followed by formalin stimulation and measured up to 5 mins by formalin test; format: functional, organism-based
Mus musculus [20] = assay: Antiinflammatory activity in complete freund's adjuvant-induced albino Swiss mouse model of arthritis assessed as reduction in joint swelling at 50 mg/kg, po administered once daily for 10 days measured every other day during compound dosing; format: functional, organism-based
Mus musculus [21] = assay: Analgesic activity in complete freund's adjuvant-induced albino Swiss mouse model of hyperalgesia assessed as increase in paw withdrawal threshold at 50 mg/kg, po pretreated for 1 hr followed by CFA stimulation and measured after 7 hrs by analgesimetric method; format: functional, organism-based
Mus musculus [22] = assay: Antiinflammatory activity in complete freund's adjuvant-induced albino Swiss mouse model of arthritis assessed as reduction in IL10 production in synovial fluid at 50 mg/kg, po pretreated for 1 hr followed by CFA stimulation and measured after 3 days; format: functional, organism-based
Mus musculus [23] = assay: Analgesic activity in formalin-induced albino Swiss mouse model of nociception assessed as reduction in time spent in paw licking during inflammatory phase at 25 to 50 mg/kg, po pretreated for 1 hr followed by formalin stimulation and measured after 15 to 30 mins by formalin test; format: functional, organism-based
Mus musculus [24] = assay: Analgesic activity in albino Swiss mouse assessed as increase in reaction time at 25 mg/kg, po measured after 120 to 240 mins by hot plate test; format: functional, organism-based
[25] = Neurotoxicity in complete freund's adjuvant-induced albino Swiss mouse model of arthritis assessed as induction of myorelaxant effect by measuring change in muscle force at 50 mg/kg, po pretreated for 1 hr followed by CFA stimulation and measured every other day for 10 days by grip strength meter method; format: toxicity, organism-based; details: in vivo, 240 h
Mus musculus [26] = assay: Analgesic activity in albino Swiss mouse assessed as increase in reaction time at 25 mg/kg, po measured after 60 to 90 mins by hot plate test; format: functional, organism-based

C/C(=C\CO)CCC[C@H](C)CCC[C@H](C)CCCC(C)C [TRANS-PHYTOL]
45%: Activity (Mus musculus [15]) | Activity (Mus musculus [17])
active: Activity (Mus musculus [1]) | Activity (Mus musculus [2]) | inhibition (Mus musculus [3]) | Activity (Mus musculus [4]) | Activity (Mus musculus [6]) | Activity (Mus musculus [8]) | Activity (Mus musculus [10]) | Activity (Mus musculus [11]) | Activity (Mus musculus [12]) | Activity (Mus musculus [13]) | inhibition (Mus musculus [14]) | Activity (Mus musculus [18]) | Activity (Mus musculus [19]) | Activity (Mus musculus [20]) | Activity (Mus musculus [21]) | Activity (Mus musculus [23]) | Activity (Mus musculus [26])
46%: Activity (Mus musculus [9])
18%: Activity (Mus musculus [7])
Non-Toxic: Activity [16] | Activity [25]
inactive: Activity (Mus musculus [5]) | Activity (Mus musculus [22]) | Activity (Mus musculus [24])

Reference: ChEMBL document CHEMBL4610066, “Phytol, a Chlorophyll Component, Produces Antihyperalgesic, Anti-inflammatory, and Antiarthritic Effects: Possible NFκB Pathway Involvement and Reduced Levels of the Proinflammatory Cytokines TNF-α and IL-6” (J Nat Prod, 2020)
